Measured values from ChEMBL document CHEMBL1201862, “PubChem BioAssay data set” (2004).
Blank lines part the entries; values can stand above or below the compound they belong to. The source made the active and inactive calls.

Legend:
[1] = biological target: DNA damage-inducible transcript 3 protein (Mus musculus, UniProt P35639); format: functional, Cricetulus griseus
Troponin, cardiac muscle = Troponin, cardiac muscle (Homo sapiens, UniProt P19429+P45379+P63316); test: Fluorescence-based biochemical high throughput dose response assay for activators of the calcium sensitivity of cardiac Regulated Thin Filaments (RTF). [Related pubchem assays (depositor defined):AID493008, AID493018, AID504382, AID504383]; format: protein-complex assay
[2] = Luminescence Cell-Based Dose Retest to Confirm Inhibitors of Cancer Stem Cells. [Related pubchem assays (depositor defined):AID2717, AID2721]; format: functional, Homo sapiens; conditions: Homo sapiens
[3] = biological target: T1, Ubiquitin-conjugating enzyme E2 N (Homo sapiens, UniProt P61088); format: functional;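 further: Dose-response confirmation in a TR-FRET assay detecting UBC13-driven polyubiquitin chain formation, inhibition measured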
T1 sequence (P61088 whole entry): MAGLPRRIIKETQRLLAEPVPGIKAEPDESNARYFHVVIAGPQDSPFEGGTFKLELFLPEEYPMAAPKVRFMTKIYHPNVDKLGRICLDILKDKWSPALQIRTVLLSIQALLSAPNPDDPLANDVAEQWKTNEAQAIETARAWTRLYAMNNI

Integrin alpha-4 = Integrin alpha-4 (Homo sapiens, UniProt P13612); test: VLA-4 integrin allosteric ligands, SAR follow-up, cell-based, LIBS antibody binding, flow cytometry (AID 488791); format: functional
[4] = biological target: Dual specificity tyrosine-phosphorylation-regulated kinase 1A (Rattus norvegicus, UniProt Q63470); format: biochemical, Homo sapiens
[5] = biological target: Type-1 angiotensin II receptor (Homo sapiens, UniProt P30556); test: AT1 receptor agonists, dose response, selectivity assay for APJ receptor agonist project, cell-based, uHTS hits (AID 488865); format: functional;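 further: beta-arrestin recruitment to AT1 measured by enzyme fragment complementation luminescence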
[6] = biological target: T2, Runt-related transcription factor 1/Core-binding factor subunit beta (Homo sapiens, UniProt Q01196+Q13951); test: Confirmation of compounds inhibiting the binding between the RUNX1 Runt domain and CBFb-SMMHC via a fluorescence resonance energy transfer (FRET) assay. [Related pubchem assays (depositor defined):AID1434, AID1438, AID1496, AID1550, AID1645]; format: protein assay
[7] = biological target: T2, Runt-related transcription factor 1/Core-binding factor subunit beta; test: inhibitors of RUNX1 Runt–CBFb-SMMHC binding, primary screen, biochemical, FRET, Cerulean-Runt, Venus-CBFb-SMMHC, uHTS (AID 1434); format: protein assay;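 further: partner is the CBFb-SMMHC leukemia fusion protein rather than wild-type CBFb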
[8] = biological target: T2, Runt-related transcription factor 1/Core-binding factor subunit beta; test: inhibitors of RUNX1 Runt–CBFb-SMMHC binding, biochemical, TR-FRET (AID 1438); format: protein assay
[9] = biological target: T2, Runt-related transcription factor 1/Core-binding factor subunit beta; test: Confirmation of compounds inhibiting the binding between the RUNX1 Runt domain and CBFb-SMMHC via a time resolved fluorescence resonance energy transfer (TR-FRET) assay. [Related pubchem assays (depositor defined):AID1434, AID1438, AID1496, AID1560, AID1645]; format: protein assay
[10] = biological target: G-protein coupled receptor 55 (Homo sapiens, UniProt Q9Y2T6); test: GPR55 agonists via beta-arrestin recruitment, primary screen, imaging, U2OS cells, beta-arrestin-GFP redistribution (AID 1961); format: functional
[11] = biological target: T3, Heat shock factor protein 1 (Mus musculus, UniProt P38532); test: HSF1 potentiators in luciferase reporter cells, confirmation, cell-based, NIH3T3, luminescence, dose retest (AID 435004); format: functional;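 further: stress induced by proteasome inhibitor MG132 added 30 min after compound; luciferase reporter driven by HSF1 response element in NIH3T3 cells; actives raise luminescence as potentiators of the MG132 stress response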
T3 sequence (P38532 whole entry): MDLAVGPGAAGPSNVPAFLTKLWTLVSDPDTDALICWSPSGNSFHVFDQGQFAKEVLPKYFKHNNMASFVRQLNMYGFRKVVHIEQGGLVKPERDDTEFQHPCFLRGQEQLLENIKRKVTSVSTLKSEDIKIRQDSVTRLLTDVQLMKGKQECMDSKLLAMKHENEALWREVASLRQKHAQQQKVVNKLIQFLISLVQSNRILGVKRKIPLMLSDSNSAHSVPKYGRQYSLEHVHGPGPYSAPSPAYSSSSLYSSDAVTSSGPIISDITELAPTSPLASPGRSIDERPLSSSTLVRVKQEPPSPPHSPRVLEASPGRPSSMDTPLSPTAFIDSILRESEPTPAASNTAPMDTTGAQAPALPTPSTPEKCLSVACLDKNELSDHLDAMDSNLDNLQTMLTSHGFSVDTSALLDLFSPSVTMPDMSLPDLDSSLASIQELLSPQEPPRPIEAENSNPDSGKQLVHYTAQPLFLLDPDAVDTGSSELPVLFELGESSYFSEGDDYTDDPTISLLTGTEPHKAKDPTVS

[12] = biological target: Heat shock protein HSP 90-alpha (Homo sapiens, UniProt P07900); format: functional, organism-based
Genome polyprotein = Genome polyprotein (dengue virus type 2, UniProt P29990); test: Dengue-2 NS5 methyltransferase inhibitors, primary screen, biochemical, confirmation dose response (AID 588689); format: functional
[13] = biological target: Peroxisome proliferator-activated receptor gamma (Homo sapiens, UniProt P37231); test: PPARg partial agonists, dose response, cell-based, luminescence, assay provider (AID 504447); format: functional

EC50 (Troponin, cardiac muscle): > 71.5 µM (inactive)
SMILES: CC1=CC(=C(C#N)C#N)C=C(C)N1Cc1ccc(Cl)cc1

EC50 [5]: > 100 µM (inactive)
SMILES: CCCCC1=CC2=CC(=O)C(C)(OC(=O)CC)C(=O)C2=CN1C1CCCCC1 (stereo unspecified)

EC50 [13]: 7.6 µM (active)
SMILES: CN1CCN(S(=O)(=O)c2ccc(Sc3nc4ccccc4[nH]3)c3nsnc23)CC1

The next lines start with the compound.

SMILES: CCOc1cccc(CN2CCN(c3cccc(C(F)(F)F)c3)CC2)c1O
Absolute IC50 (CHOP) [1]: 10 µM

SMILES: COc1cccc(-c2sc3ccccc3c2-c2ccc(OCCN3CCCC3)cc2)c1
AC50 [2]: 2.58 µM (active) | IC50 [3]: > 20 µM (inactive) | EC50 (Integrin alpha-4): > 42.9 µM (inactive) | AC50 [4]: 49.2 µM (active)

SMILES: O=C1C=CC(=O)N1N(c1ccccc1)c1ccccc1
IC50 [6]: 10.3 µM (active) | IC50 [7]: 10.1 µM (active) | IC50 [8]: 21.4 µM (active) | IC50 [9]: 16.5 µM (active) | EC50 [10]: > 32 µM (inactive) | EC50 [11]: 4.95 µM (active) | AC50 [12]: 4.16 µM (active) | IC50 (Genome polyprotein): 41.6 µM (active)
